From US7112683B2, “Cyclic sulfone containing retroviral protease inhibitors” (priority 1992, dated 2006) come the findings set out here.

Data set [1] can be described thus: TD50 of Table 1 (toxic dose, method not described).
A further data set has as its target HIV protease (Human immunodeficiency virus type 1 group M subtype B, UniProt P04585). The experiment in a line: HIV protease enzyme assay (fluorogenic substrate 2-aminobenzoyl-Ile-Nle-Phe(p-NO2)-Gln-ArgNH2). The format is biochemical. As for the experimental part:
The compounds of the present invention are effective HIV protease inhibitors. […] The calculated IC50 indicates the concentration providing inhibition of 50%, i.e., the concentration at which the inhibitor compound reduces enzyme activity by 50%). The enzyme method is described below. The substrate is 2-aminobenzoyl-Ile-Nle-Phe(p-NO2)-Gln-ArgNH2. The positive control is MVT-101 [Miller, M. et al, Science, 246, 1149 (1989)]. The assay conditions are as follows: • Assay buffer: 20 mM sodium phosphate, pH 6.4 • 20% glycerol • 1 mM EDTA • 1 mM DTT • 0.1% CHAPS
The above described substrate is dissolved in DMSO, then diluted 10 fold in assay buffer. Final substrate concentration in the assay is […].
HIV protease is diluted in the assay buffer to a final concentration of glycerol is 18%. The test compound is dissolved in DMSO and diluted in DMSO to 10× the test concentration; […] of the enzyme preparation is added, the materials mixed and then the mixture is incubated at ambient temperature for 15 minutes. The enzyme reaction is initiated by the addition of […] of substrate. The increase in fluorescence is monitored at 4 time points (0, 8, 16 and 24 minutes) at ambient temperature. Each assay is carried out in duplicate wells.

The test system of a further data set is HIV. The data set can be described thus: EC50 of Table 1 (antiviral activity, method not described). Format: cell-based.
Where [2] appears, read: HIV protease, pH 6.4, ambient temperature, read-out: IC50.
Setting [3] is: IC50 (range given for the listed examples), inhibition of the HIV enzyme, range over Examples 4, 4a, 7, 8 and 9.
The mark [4] stands for this setting: IC50, HIV protease, pH 6.4, ambient temperature.

Read-outs that look alike come from different tables or passages of the source.

For the molecule “2H-thiopyran-3-carboxamide, N-(3-[[[(1,1-dimethylethyl amino]-carbonyl](3-methylbutyl) amino]-2-hydroxy-1-(phenylmethyl) propyl]tetrahydro,-1,1-dioxide. [Example 4]”, the TD50 in data set [1] is reported as 308,000 nM. The IC50 (as a rule, the concentration that gives 50% inhibition) at HIV protease (setting [2]) was found to be 13 nM. In addition, in the data set with HIV, the EC50 (as a rule, the midpoint of the concentration-response curve) was 63 nM.
As to `CC(C)CCN(C[C@@H](O)[C@H](Cc1ccccc1)NC(=O)C1CCCS(=O)(=O)C1)C(=O)NC(C)(C)Cn1ccnc1` (some centres unmarked) [Example 4a], the figures for the IC50 against HIV protease (setting [3]) and on HIV protease (setting [4]) were 3 to 140 nM and 46 nM, respectively.
The corresponding values for `CC(C)(C)NC(=O)[C@@H]1C[C@@H]2CCCC[C@@H]2CN1C[C@@H](O)[C@H](Cc1ccccc1)NC(=O)C1CCCS(=O)(=O)C1` (some centres unmarked) [Example 7] are 3 to 140 nM and 3 nM.
Take `CC(C)CCN(C[C@@H](O)[C@H](Cc1ccccc1)NC(=O)C1CCCS(=O)(=O)C1)S(=O)(=O)c1ccccc1` (some centres unmarked) [Example 8]: the IC50 against HIV protease (setting [3]) was 3 to 140 nM; against HIV protease (setting [4]), 4 nM.
Consider `CC(C)CN(CC(O)C(Cc1ccccc1)NC(=O)C1CCCS(=O)(=O)C1)S(=O)(=O)NC(C)(C)C` (centres unmarked) [Example 9], for which the concentration for half-maximal inhibition (IC50) at HIV protease (setting [2]) is 140 nM; at HIV protease (inhibition of the HIV enzyme, range over Examples 4, 4a, 7, 8 and 9, read-out: IC50 (range given for the listed examples)), 3 to 140 nM.
